In the NIST ThermoML archive (doi:10.1021/je030147g):
± gives the expanded uncertainty stated by the source.

Columns and labels:
[1] = xn = mol fraction of the nth substance listed; settings: 101.33 kPa, Liquid
[2] = refractive index (Na D-line) (dimensionless); xn = mol fraction of the nth substance listed; settings: 101.33 kPa, Liquid

CCCCN(CCCC)CCCC [tributylamine] + ClC(Cl)=C(Cl)Cl
Settings	mass density, [1] [kg/m3]	refractive index, [2]	speed of sound, [1] [m/s]	viscosity, [1] [mPa·s]
298.15 K, x1 = 0.104	1433.8 ± 1.6	1.4872 ± 0.0012	1052 ± 5	0.917 ± 0.023
298.15 K, x1 = 0.2059	1295.5 ± 1.4	1.4748 ± 0.0012	1073 ± 5	0.958 ± 0.024
298.15 K, x1 = 0.3068	1185.4 ± 1.2	1.4659 ± 0.0012	1094 ± 5	0.996 ± 0.025
298.15 K, x1 = 0.4073	1095 ± 1.1	1.4566 ± 0.0012	1116 ± 5	1.033 ± 0.025
298.15 K, x1 = 0.4967	1026.9 ± 1.1	1.4506 ± 0.0012	1136 ± 5	1.065 ± 0.026
298.15 K, x1 = 0.6069	955.4 ± 1	1.4437 ± 0.0012	1162 ± 5	1.104 ± 0.027
298.15 K, x1 = 0.699	904.2 ± 0.9	1.4396 ± 0.0012	1184 ± 5	1.136 ± 0.028
298.15 K, x1 = 0.8018	854.3 ± 0.9	1.435 ± 0.0013	1209 ± 5	1.172 ± 0.029
298.15 K, x1 = 0.9007	812 ± 0.8	1.4316 ± 0.0013	1235 ± 5	1.206 ± 0.03
298.15 K, x1 = 1	773.9 ± 0.8	1.4276 ± 0.0013	1262 ± 6	1.239 ± 0.03
303.15 K, x1 = 0.104	1425.9 ± 1.6	1.4842 ± 0.0012	–	0.869 ± 0.022
303.15 K, x1 = 0.2059	1288.1 ± 1.4	1.4721 ± 0.0012	–	0.902 ± 0.023
303.15 K, x1 = 0.3068	1181.4 ± 1.3	–	–	0.93 ± 0.023
303.15 K, x1 = 0.4073	1089.1 ± 1.2	1.4539 ± 0.0012	–	0.96 ± 0.024
303.15 K, x1 = 0.4967	1021.5 ± 1.1	1.4479 ± 0.0012	–	0.99 ± 0.025
303.15 K, x1 = 0.6069	949.9 ± 1	1.4415 ± 0.0012	–	1.018 ± 0.025
303.15 K, x1 = 0.699	899.4 ± 1	1.4367 ± 0.0012	–	1.053 ± 0.026
303.15 K, x1 = 0.8018	849.4 ± 0.9	1.4325 ± 0.0013	–	1.081 ± 0.027
303.15 K, x1 = 0.9007	808 ± 0.9	1.4289 ± 0.0013	–	1.104 ± 0.027
303.15 K, x1 = 1	769.2 ± 0.8	1.4255 ± 0.0013	–	1.124 ± 0.028
308.15 K, x1 = 0.104	1418.2 ± 1.6	1.481 ± 0.0012	–	0.818 ± 0.021
308.15 K, x1 = 0.2059	1281.3 ± 1.5	1.4692 ± 0.0012	–	0.844 ± 0.021
308.15 K, x1 = 0.3068	1172.5 ± 1.3	1.4594 ± 0.0012	–	0.869 ± 0.022
308.15 K, x1 = 0.4073	1083.2 ± 1.2	1.451 ± 0.0012	–	0.893 ± 0.022
308.15 K, x1 = 0.4967	1015.9 ± 1.1	1.445 ± 0.0012	–	0.914 ± 0.023
308.15 K, x1 = 0.6069	945.2 ± 1.1	1.4392 ± 0.0012	–	0.94 ± 0.024
308.15 K, x1 = 0.699	894.7 ± 1	1.434 ± 0.0012	–	0.961 ± 0.024
308.15 K, x1 = 0.8018	845.3 ± 1	1.4298 ± 0.0013	–	0.984 ± 0.025
308.15 K, x1 = 0.9007	803.4 ± 0.9	1.4263 ± 0.0013	–	1.006 ± 0.025
308.15 K, x1 = 1	765.7 ± 0.9	1.4228 ± 0.0013	–	1.028 ± 0.026

c1ccncc1 [pyridine] + CCCCN(CCCC)CCCC
x2 = 0
Settings	mass density, 298.15 K [kg/m3]	mass density, 303.15 K [kg/m3]	mass density, 308.15 K [kg/m3]	refractive index, 298.15 K	refractive index, 303.15 K	refractive index, 308.15 K	speed of sound, 298.15 K [m/s]	viscosity, 298.15 K [mPa·s]	viscosity, 303.15 K [mPa·s]	viscosity, 308.15 K [mPa·s]
[1]	979 ± 1	973.7 ± 1	968.6 ± 1.1	–	–	–	1412 ± 6	0.885 ± 0.022	0.82 ± 0.021	0.766 ± 0.02
[2]	–	–	–	1.5062 ± 0.0012	1.5025 ± 0.0012	1.5016 ± 0.0012	–	–	–	–

CCCCN(CCCC)CCCC [tributylamine] + ClC=C(Cl)Cl
x1 = 1
Settings	mass density, 298.15 K [kg/m3]	mass density, 303.15 K [kg/m3]	mass density, 308.15 K [kg/m3]	refractive index, 298.15 K	refractive index, 303.15 K	refractive index, 308.15 K	speed of sound, 298.15 K [m/s]	viscosity, 298.15 K [mPa·s]	viscosity, 303.15 K [mPa·s]	viscosity, 308.15 K [mPa·s]
[1]	773.3 ± 0.8	769.2 ± 0.8	765.7 ± 0.9	–	–	–	1262 ± 6	1.239 ± 0.03	1.124 ± 0.028	1.028 ± 0.026
[2]	–	–	–	1.4276 ± 0.0013	1.4255 ± 0.0013	1.4228 ± 0.0013	–	–	–	–

CCCCN(CCCC)CCCC [tributylamine] + C1CCOC1
Settings	mass density, [1] [kg/m3]	refractive index, [2]	speed of sound, [1] [m/s]	viscosity, [1] [mPa·s]
298.15 K, x1 = 0.1033	853.3 ± 0.8	1.412 ± 0.0012	1283 ± 6	0.571 ± 0.015
298.15 K, x1 = 0.2033	833.4 ± 0.8	1.415 ± 0.0012	1278 ± 6	0.656 ± 0.017
298.15 K, x1 = 0.3041	818.9 ± 0.8	1.418 ± 0.0012	1274 ± 6	0.741 ± 0.019
298.15 K, x1 = 0.4012	808.1 ± 0.8	1.42 ± 0.0012	1271 ± 6	0.818 ± 0.021
298.15 K, x1 = 0.5024	799.2 ± 0.8	1.4229 ± 0.0012	1269 ± 6	0.897 ± 0.023
298.15 K, x1 = 0.5974	792.5 ± 0.8	1.4235 ± 0.0012	1267 ± 6	0.967 ± 0.024
298.15 K, x1 = 0.6814	787.5 ± 0.8	1.4249 ± 0.0013	1266 ± 6	1.028 ± 0.026
298.15 K, x1 = 0.7898	782.1 ± 0.8	1.4265 ± 0.0013	1264 ± 6	1.1 ± 0.027
298.15 K, x1 = 0.8941	777.8 ± 0.8	1.4269 ± 0.0013	1263 ± 6	1.167 ± 0.029
298.15 K, x1 = 1	773.9 ± 0.8	1.4276 ± 0.0013	1262 ± 6	1.239 ± 0.03
303.15 K, x1 = 0.1033	847.9 ± 0.9	1.4094 ± 0.0012	–	0.539 ± 0.015
303.15 K, x1 = 0.2033	828.4 ± 0.8	1.4141 ± 0.0012	–	0.618 ± 0.017
303.15 K, x1 = 0.3041	814.2 ± 0.8	1.4155 ± 0.0012	–	0.693 ± 0.018
303.15 K, x1 = 0.4012	803.5 ± 0.8	1.4178 ± 0.0012	–	0.763 ± 0.02
303.15 K, x1 = 0.5024	794.7 ± 0.8	1.4203 ± 0.0012	–	0.833 ± 0.021
303.15 K, x1 = 0.5974	788.2 ± 0.8	1.4211 ± 0.0012	–	0.896 ± 0.023
303.15 K, x1 = 0.6814	783.1 ± 0.8	1.4226 ± 0.0013	–	0.949 ± 0.024
303.15 K, x1 = 0.7898	777.9 ± 0.8	1.4238 ± 0.0013	–	1.014 ± 0.025
303.15 K, x1 = 0.8941	773.6 ± 0.8	1.4246 ± 0.0013	–	1.071 ± 0.027
303.15 K, x1 = 1	769.2 ± 0.8	1.4254 ± 0.0013	–	1.124 ± 0.028
308.15 K, x1 = 0.1033	842.5 ± 0.9	1.4068 ± 0.0012	–	0.509 ± 0.014
308.15 K, x1 = 0.2033	823.5 ± 0.9	–	–	0.581 ± 0.016
308.15 K, x1 = 0.3041	809.3 ± 0.9	1.413 ± 0.0012	–	0.646 ± 0.017
308.15 K, x1 = 0.4012	798.9 ± 0.9	1.4156 ± 0.0012	–	0.708 ± 0.019
308.15 K, x1 = 0.5024	790.3 ± 0.9	1.4178 ± 0.0012	–	0.769 ± 0.02
308.15 K, x1 = 0.5974	783.8 ± 0.9	1.4188 ± 0.0012	–	0.825 ± 0.021
308.15 K, x1 = 0.6814	778.9 ± 0.9	1.4203 ± 0.0013	–	0.871 ± 0.022
308.15 K, x1 = 0.7898	773.6 ± 0.9	1.4212 ± 0.0013	–	0.928 ± 0.023
308.15 K, x1 = 0.8941	769.4 ± 0.9	1.4224 ± 0.0013	–	0.976 ± 0.025
308.15 K, x1 = 1	765.7 ± 0.9	1.4228 ± 0.0013	–	1.02 ± 0.026
